These results are taken from patent US10813920B2, “Drug for treating corneal endothelium by promoting cell proliferation or inhibiting cell damage” (THE DOSHISHA, priority 2013, dated 2020).

This test deals with human corneal endothelial cells. In words: BrdU uptake ELISA in cultured human corneal endothelial cells (Example 2). Format: cell-based. The note with it: ELISA after 3 days; 1, 3, 10, 30 μM; relative to control. How it is done: *The amount of IL-6 expression of human corneal endothelial cells was quantified by RT-PCR by the following method. Human corneal endothelial cells (n=3, passage 5) were cultured for 20 days in the presence of 10 μM of SB203580, and then RNA was extracted with RneasyMini (QIAGEN). 277 ng of total RNA was reverse-transcribed with RevertraAce (Toyobo) and cDNA synthesized into a template to perform PCR. 10 μl of PCR solution containing 1 μl of reaction mixture from single strand cDNA synthesis was heated for 1 minute at an initial temperature of 94° C. and then 1 minute at 94° C., 30 seconds at 54° C., and 30 seconds at 72° C. The temperature cycle was repeated 30 times. IL-6 sense primer: […] (SEQ ID NO: 1) IL-6 antisense primer: […] (SEQ ID NO: 2) *ELISA (BrdU): Cells were seeded on a 96-well culture plate at a seeding density of 5000 cells/well. […] The reaction was stopped with 1M sulfuric acid to measure the absorbance at 450 nm with a plate reader. […] The amount of IL-6 protein in a culture supernatant collected after 7 days was quantified in accordance with the manual of DuoSetELISA human IL-6 (R & D Cat # DY206). […] The plate was washed and the bound peroxidase was detected with a substrate solution (R&D Systems Cat # DY999). The coloring reaction was stopped with 2M of H2SO4 to read out the plate with Multimax (Promega) at […]. […]
(In general: An ELISA detects its analyte on a solid surface through an enzyme-linked reagent.)

Turning to `C[S+]([O-])c1ccc(-c2nc(-c3ccncc3)c(-c3ccc(F)cc3)[nH]2)cc1` (stereo not shown) [SB203580, 4-(4-fluorophenyl)-2-(4-methylsulfinylphenyl)-5-(4-pyridyl)-1H-imidazole], the BrdU uptake entry was “significantly promoted”.
